Test results reported in patent publication US20200339511A1, “Substituted indoline derivatives as dengue viral replication inhibitors” (priority 2016, published 2020).

How the values were obtained:
Vero cells = details: African green monkey
DENV-2 16681 strain = experiment: DENV-2 antiviral assay (eGFP-labeled virus in Vero cells); type: cell-based, Dengue virus; details: DENV-2 16681 eGFP, MOI 0.5, 3 days
Protocol: The antiviral activity of all the compounds of the invention was tested the against DENV-2 16681 strain which was labeled with enhanced green fluorescent protein (eGPF). The culture medium consists of minimal essential medium supplemented with 2% of heat-inactivated fetal calf serum, 0.04% gentamycin (50 mg/mL) and 2 mM of L-glutamine. Vero cells, obtained from ECACC, were suspended in culture medium and 25 μL was added to 384-well plates (2500 cells/well), which already contain the antiviral compounds. Typically, these plates contain a 5-fold serial dilution of 9 dilution steps of the test compound at 200 times the final concentration in 100% DMSO (200 nL). […] Finally, each plate contains wells which are assigned as virus controls (containing cells and virus in the absence of compound), cell controls (containing cells in the absence of virus and compound) and medium controls (containing medium in the absence of cells, virus and compounds). To the wells assigned as medium control, 25 μL of culture medium was added instead of Vero cells. Once the cells were added to the plates, the plates were incubated for 30 minutes at room temperature to allow the cells to distribute evenly within the wells. Next, the plates were incubated in a fully humidified incubator (37° C., 5% CO2) until the next day. Then, DENV-2 strain 16681, labeled with eGFP, was added at a multiplicity of infection (MOI) of 0.5. Therefore, 15 μL of virus suspension was added to all the wells containing test compound and to the wells assigned as virus control. In parallel, 15 μL of culture medium was added to the medium and cell controls. Next, the plates were incubated for 3 days in a fully humidified incubator (37° C., 5% CO2). At the day of the read out, the eGFP fluorescence was measured using an automated fluorescence microscope at 488 nm (blue laser). Using an in-house LIMS system, inhibition dose response curves for each compound were calculated and the half maximal effective concentration (EC50) was determined. Therefore, the percent inhibition (I) for every test concentration is calculated using the following formula: I=100*(ST-SCC)/(SVC-SCC), ST, SCC and SVC are the amount of eGFP signal in the test compound, cell control and virus control wells, respectively. The EC50 represents the concentration of a compound at which the virus replication is inhibited with 50%, as measured by a 50% reduction of the eGFP fluorescent intensity compared to the virus control. The EC50 is calculated using linear interpolation (Table 1).

in vitro = details: African green monkey
[1] = Dengue virus, DENV2, Vero, 72 h

Structure (SMILES) | CC50 (Vero cells) | EC50 (DENV-2 16681 strain) | CC50 (in vitro) | EC50 (DENV-2 16681 strain; [1])
COc1cc(NC(C(=O)N2CCc3ccc(OC(F)(F)F)cc32)c2ccc(Cl)cc2)cc(OCCO)c1 (single isomer, unassigned) [Compound 3B, 2-(4-chlorophenyl)-2-((3-(2-hydroxyethoxy)-5-methoxyphenyl)amino)-1-(6-(trifluoromethoxy)indolin-1-yl)ethanone] | 12000 nM | 590 nM |  | 
COc1cc(NC(C(=O)N2CCc3cc(OC)c(C(F)(F)F)cc32)c2ccc(Cl)cc2F)cc(OCCO)c1 (single isomer, unassigned) [Compound 8A, 2-(4-chloro-2-fluorophenyl)-2-((3-(2-hydroxyethoxy)-5-methoxyphenyl)amino)-1-(5-methoxy-6-(trifluoromethyl)indolin-1-yl)ethanone] | > 25000 nM | 460 nM |  | 
COc1cc(NC(C(=O)N2CCc3ccc(C(F)(F)F)cc32)c2ccc(Cl)cc2F)cc(OCCO)c1 (racemic) [Compound 2, 2-(4-chloro-2-fluorophenyl)-2-((3-(2-hydroxyethoxy)-5-methoxyphenyl)amino)-1-(6-(trifluoromethyl)indolin-1-yl)ethanone] |  |  | 12000 nM | 8.9 nM
COc1cc(NC(C(=O)N2CCc3ccc(OC(F)(F)F)cc32)c2ccc(Cl)cc2F)cc(OCCO)c1 (single isomer, unassigned) [Compound 6A, 2-(4-chloro-2-fluorophenyl)-2-((3-(2-hydroxyethoxy)-5-methoxyphenyl)amino)-1-(6-(trifluoromethoxy)indolin-1-yl)ethanone] |  | 280 nM | 17000 nM | 
COc1cc(NC(C(=O)N2CCc3c(C)cc(C(F)(F)F)cc32)c2ccc(Cl)cc2)cc(OCCO)c1 (single isomer, unassigned) [Compound 10A, 2-(4-chlorophenyl)-2-((3-(2-hydroxyethoxy)-5-methoxy-phenyl)amino)-1-(4-methyl-6-(trifluoromethyl)indolin-1-yl)ethanone] |  | 1300 nM | 11000 nM | 
COc1cc(NC(C(=O)N2CCc3ccc(OC(F)(F)F)cc32)c2ccc(Cl)cc2OC)cc(OCCO)c1 (single isomer, unassigned) [Compound 5B, 2-(4-chloro-2-methoxyphenyl)-2-((3-(2-hydroxyethoxy)-5-methoxyphenyl)amino)-1-(6-(trifluoromethoxy)indolin-1-yl)ethanone] | 14000 nM | 760 nM |  | 
COc1cc(NC(C(=O)N2CCc3ccc(OC(F)(F)F)cc32)c2ccc(Cl)cc2F)cc(OCCO)c1 (racemic) [Compound 6, 2-(4-chloro-2-fluorophenyl)-2-((3-(2-hydroxyethoxy)-5-methoxyphenyl)amino)-1-(6-(trifluoromethoxy)indolin-1-yl)ethanone] |  |  | 14000 nM | 6.2 nM
COc1cc(NC(C(=O)N2CCc3cc(OC)c(C(F)(F)F)cc32)c2ccc(Cl)cc2)cc(OCCO)c1 (racemic) [Compound 7, 2-(4-chlorophenyl)-2-((3-(2-hydroxyethoxy)-5-methoxyphenyl)amino)-1-(5-methoxy-6-(trifluoromethyl)indolin-1-yl)ethanone] |  |  | 11000 nM | 2.3 nM
COc1cc(NC(C(=O)N2CCc3ccc(C(F)(F)F)cc32)c2ccc(Cl)cc2F)cc(OCCO)c1 (single isomer, unassigned) [Compound 2A, 2-(4-chloro-2-fluorophenyl)-2-((3-(2-hydroxyethoxy)-5-methoxyphenyl)amino)-1-(6-(trifluoromethyl)indolin-1-yl)ethanone] |  | 320 nM | 18000 nM | 
COc1cc(NC(C(=O)N2CCc3cc(OC)c(OC(F)(F)F)cc32)c2ccc(Cl)cc2)cc(OCCO)c1 (single isomer, unassigned) [Compound 13B, 2-(4-chlorophenyl)-2-((3-(2-hydroxyethoxy)-5-methoxyphenyl)amino)-1-(5-methoxy-6-(trifluoromethoxy)indolin-1-yl)ethanone] | > 25000 nM | 280 nM |  | 
COc1cc(NC(C(=O)N2CCc3cc(F)c(C(F)(F)F)cc32)c2ccc(Cl)cc2)cc(OCCO)c1 (single isomer, unassigned) [Compound 12B, 2-(4-chlorophenyl)-1-(5-fluoro-6-(trifluoromethyl)indolin-1-yl)-2-((3-(2-hydroxyethoxy)-5-methoxyphenyl)amino)ethanone] | 11000 nM | 400 nM |  | 
COc1cc(NC(C(=O)N2CCc3cc(OC)c(C(F)(F)F)cc32)c2ccc(Cl)cc2)cc(OCCO)c1 (single isomer, unassigned) [Compound 7A, 2-(4-chlorophenyl)-2-((3-(2-hydroxyethoxy)-5-methoxyphenyl)amino)-1-(5-methoxy-6-(trifluoromethyl)indolin-1-yl)ethanone] |  | 790 nM | 21000 nM | 
COc1cc(NC(C(=O)N2CCc3cc(OC)c(C(F)(F)F)cc32)c2ccc(Cl)cc2F)cc(OCCO)c1 (racemic) [Compound 8, 2-(4-chloro-2-fluorophenyl)-2-((3-(2-hydroxyethoxy)-5-methoxyphenyl)amino)-1-(5-methoxy-6-(trifluoromethyl)indolin-1-yl)ethanone] |  |  | > 25000 nM | 4.4 nM
COc1cc(NC(C(=O)N2CCc3c(C)cc(OC(F)(F)F)cc32)c2ccc(Cl)cc2)cc(OCCO)c1 (single isomer, unassigned) [Compound 9A, 2-(4-chlorophenyl)-2-((3-(2-hydroxyethoxy)-5-methoxy-phenyl)amino)-1-(4-methyl-6-(trifluoromethoxy)indolin-1-yl)ethanone] |  | 1000 nM | 13000 nM | 
COc1cc(NC(C(=O)N2CCc3cc(OC)c(C(F)(F)F)cc32)c2ccc(Cl)cc2OC)cc(OCCO)c1 (single isomer, unassigned) [Compound 11A, 2-(4-chloro-2-methoxyphenyl)-2-((3-(2-hydroxyethoxy)-5-methoxyphenyl)amino)-1-(5-methoxy-6-(trifluoromethyl)indolin-1-yl)ethanone] |  | 330 nM | > 25000 nM | 
COc1cc(NC(C(=O)N2CCc3ccc(C(F)(F)F)cc32)c2ccc(Cl)cc2OC)cc(OCCO)c1 (single isomer, unassigned) [Compound 1A, 2-(4-chloro-2-methoxyphenyl)-2-((3-(2-hydroxyethoxy)-5-methoxyphenyl)amino)-1-(6-(trifluoromethyl)indolin-1-yl)ethanone] |  | 220 nM | 13000 nM | 
